We go through 18 compounds from patent US20170044104A1, “NEW PESTICIDAL COMPOUNDS AND USES” (BAYER CROPSCIENCE AG, priority 2013, published 2017).

Bounds are passed on as bounds.

One assay relates to Meloidogyne incognita. Put plainly: Meloidogyne incognita (MELGIN) gall formation assay. In kind it is in vivo. The conditions noted are these: 336 h, read-out: nematicidal activity (percentage of gall formation). The protocol: Solvent: 125.0 parts by weight of acetone
To produce a suitable preparation of active compound, 1 part by weight of active compound is mixed with the stated amount of solvent, and the concentrate is diluted with water to the desired concentration.
Vessels are filled with sand, a solution of the active ingredient, a suspension containing eggs and larvae of the southern root-knot nematode (Meloidogyne incognita) and salad seeds. The salad seeds germinate and the seedlings grow. Galls develop in the roots.
After 14 days the nematicidal activity is determined on the basis of the percentage of gall formation. 100% means no galls were found and 0% means the number of galls found on the roots of the treated plants was equal to that in untreated control plants.

For a further assay, the system named is Cooperia curticei. Put plainly: Cooperia curticei (COOPCU) larval mortality assay. Conditions: 120 h, application rate 20 ppm, after 5 days, read-out: activity (percentage of larval mortality). How it is done: (§1) Solvent: dimethyl sulfoxide
(§2) To produce a suitable preparation of active compound, 10 mg of active compound are dissolved in 0.5 ml solvent, and the concentrate is diluted with “Ringer's solution” to the desired concentration.
Approximately 40 nematode larvae (Cooperia curticei) are transferred into a test tube containing the compound solution.
After 5 days percentage of larval mortality is recorded. 100% efficacy means all larvae are killed; 0% efficacy means no larvae are killed.

Another assay has as its system Haemonchus contortus. Put plainly: Haemonchus contortus (HAEMCO) larval mortality assay. Conditions: 120 h; for mortality at 20 ppm: application rate 20 ppm, after 5 days, read-out: activity (percentage of larval mortality); for Emax at 0.8 ppm / Emax at 4 ppm / Emax at 20 ppm: comparative test, 5 dat, read-out: % Efficacy. How it is done: as §1, §2
Approximately 40 larvae of the red stomach worm (Haemonchus contortus) are transferred into a test tube containing compound solution.
After 5 days percentage of larval mortality are recorded. 100% efficacy means all larvae are killed, 0% efficacy means no larvae are killed.

Assay [1] deals with Nippostrongylus brasiliensis. Put plainly: Nippostrongylus brasiliensis (NIPOBR) assay, acetylcholine esterase readout. Conditions: 10 ppm (10 μg/ml), adult worms, read-out: activity (reduction of AChE compared to negative control). How it is done:
Adult Nippostrongylus brasiliensis were washed with saline buffer containing 100 U/ml penicillin, 0.1 mg/ml streptomycin and 2.5 μg/ml amphotericin B. Test compounds were dissolved in DMSO and worms were incubated in medium in a final concentration of 10 μg/ml (10 ppm). An aliquot of the medium was used to determine the acetylcholine esterase activity in comparison to a negative control. The principle of measuring acetylcholine esterase as readout for anthelmintic activity was described in Rapson et al (1986) and Rapson et al (1987).

Assay [2] relates to Dirofilaria immitis microfilariae. Put plainly: microbe, parasite or virus in culture. Conditions: 72 h, read-out: EC50 (reduction of motility).

By mortality is commonly meant the percentage killed. A word on the EC50: it is the concentration giving half of the maximal effect.

Take `O=C(NCCc1ccc(-c2cncc(F)c2)cc1Cl)c1ccccc1C(F)(F)F` [Example 1-37]: the pest or weed control at 20 ppm in the assay on Meloidogyne incognita came to 90%. The mortality at 20 ppm in the assay on Cooperia curticei was found to be 100%. For the same compound, in the assay on Haemonchus contortus, the mortality at 20 ppm turned out to be 100%, the Emax at 0.8 ppm was found to be 100%, the Emax at 4 ppm is 100% and the Emax at 20 ppm stood at 100%. Further, the inhibition at 10 ppm in assay [1] is at least 60%.

Regarding `O=C(NCCc1ccc(-c2ccc(F)nc2)cc1Cl)c1ccccc1C(F)(F)F` [Example 1-44], in the assay with Meloidogyne incognita, the pest or weed control at 20 ppm worked out at 90%. The mortality at 20 ppm in the assay on Cooperia curticei worked out at 100%. In addition, in the assay on Haemonchus contortus, the mortality at 20 ppm turned out to be 100%, the Emax at 0.8 ppm came out at 100%, the Emax at 4 ppm was determined as 100% and the Emax at 20 ppm turned out to be 100%. In addition, the inhibition at 10 ppm in assay [1] was at least 60%.

Turning to `O=C(NCCc1ccc(-c2cccnc2Cl)cc1Cl)c1ccccc1C(F)(F)F` [Example 1-48], the pest or weed control at 20 ppm in the assay with Meloidogyne incognita is 90%. Also, the mortality at 20 ppm with Cooperia curticei was found to be 100%. Also, in the assay with Haemonchus contortus, the mortality at 20 ppm was 100%, the Emax at 0.8 ppm stood at 80%, the Emax at 4 ppm amounted to 100% and the Emax at 20 ppm turned out to be 100%. For the same compound, the inhibition at 10 ppm in assay [1] is at least 60%.

For `O=C(NCC(F)(F)c1ccc(-c2ccc(Cl)nc2)cc1Cl)c1ccccc1C(F)(F)F` [Example 1-68], in the assay on Meloidogyne incognita, the pest or weed control at 20 ppm is 90%. The mortality at 20 ppm with Cooperia curticei and in the assay with Haemonchus contortus was 100% throughout. Besides, in assay [1], the inhibition at 10 ppm was at least 60%.

Take `O=C(NCC(F)(F)c1ccc(-n2cc(C(F)(F)F)cn2)cc1Cl)c1ccccc1C(F)(F)F` [Example 1-69, N-[2-[2-chloro-4-[4-(trifluoromethyl)pyrazol-1-yl]phenyl]-2,2-difluoro-ethyl]-2-(trifluoromethyl)benzamide]: the pest or weed control at 20 ppm in the assay on Meloidogyne incognita worked out at 100%. Moreover, in the assay with Cooperia curticei, the mortality at 20 ppm amounted to 100%. Further, in the assay on Haemonchus contortus, the mortality at 20 ppm was determined as 100%, the Emax at 0.8 ppm was 100%, the Emax at 4 ppm was determined as 100% and the Emax at 20 ppm is 100%. In assay [1], the inhibition at 10 ppm was at least 60%.

For the compound `O=C(NCC(F)c1ccc(-c2ccc(C(F)(F)F)nc2)cc1Cl)c1ccccc1C(F)(F)F` (centres unmarked) [Example 1-70], the pest or weed control at 20 ppm with Meloidogyne incognita was determined as 100%. The mortality at 20 ppm in the assay on Cooperia curticei amounted to 100%; with Haemonchus contortus, 90%. For the same compound, the EC50 in assay [2] is under 5 µg/mL. Moreover, the inhibition at 10 ppm in assay [1] was at least 60%.

`O=C(NCC(F)c1ccc(-c2ccc(Cl)nc2)cc1Cl)c1ccccc1C(F)(F)F` (centres unmarked) [Example 1-73, N-{2-[2-chloro-4-(6-chloropyridin-3-yl)phenyl]-2-fluoroethyl}-2-(trifluoromethyl) benzamide]: in the assay with Meloidogyne incognita, the pest or weed control at 20 ppm turned out to be 100%. The mortality at 20 ppm in the assay on Cooperia curticei and with Haemonchus contortus was 100% each time. For the same compound, the EC50 in assay [2] was under 5 µg/mL. In assay [1], the inhibition at 10 ppm is at least 60%.

Consider `O=C(NCC(F)c1ccc(-c2ccc(F)nc2)cc1Cl)c1ccccc1C(F)(F)F` (centres unmarked) [Example 1-74], for which the pest or weed control at 20 ppm in the assay with Meloidogyne incognita is 90%. The mortality at 20 ppm with Cooperia curticei amounted to 100%. Besides, in the assay with Haemonchus contortus, the mortality at 20 ppm is 100%, the Emax at 0.8 ppm stood at 100%, the Emax at 4 ppm stood at 100% and the Emax at 20 ppm was determined as 100%. Moreover, the EC50 in assay [2] is under 5 µg/mL. In addition, in assay [1], the inhibition at 10 ppm is at least 60%.

Turning to `O=C(NCC(F)c1ccc(-c2cncc(Cl)c2)cc1Cl)c1ccccc1C(F)(F)F` (centres unmarked) [Example 1-77], the mortality at 20 ppm in the assay on Cooperia curticei and in the assay on Haemonchus contortus was 100% throughout. For the same compound, in assay [2], the EC50 was under 5 µg/mL. Besides, the inhibition at 10 ppm in assay [1] was at least 60%.

For `O=C(NCC(F)c1ccc(-c2ccnc(F)c2)cc1Cl)c1ccccc1C(F)(F)F` (centres unmarked) [Example 1-78], the mortality at 20 ppm in the assay on Cooperia curticei and with Haemonchus contortus was 100% in each case. The EC50 in assay [2] was under 5 µg/mL. The inhibition at 10 ppm in assay [1] was at least 60%.

For the compound `O=C(NCC(F)c1ccc(-c2cncc(Cl)c2)cc1Cl)c1nccnc1C(F)(F)F` (centres unmarked) [Example 1-82], the pest or weed control at 20 ppm with Meloidogyne incognita was 100%. For the same compound, the mortality at 20 ppm in the assay on Cooperia curticei and with Haemonchus contortus was 100% in each case. The inhibition at 10 ppm in assay [1] is at least 60%.

For the compound `O=C(NCC(F)c1ccc(-c2ccc(F)nc2)cc1Cl)c1nccnc1C(F)(F)F` (centres unmarked) [Example 1-87], the pest or weed control at 20 ppm with Meloidogyne incognita is 100%. The mortality at 20 ppm in the assay with Cooperia curticei and in the assay on Haemonchus contortus was 100% throughout. Also, the inhibition at 10 ppm in assay [1] was at least 60%.

For `O=C(NCC(F)c1ccc(-c2ccc(F)nc2)cc1Cl)c1cccnc1C(F)(F)F` (centres unmarked) [Example 1-88], in the assay on Meloidogyne incognita, the pest or weed control at 20 ppm was found to be 100%. Further, the mortality at 20 ppm with Cooperia curticei and in the assay with Haemonchus contortus was 100% each time. For the same compound, the inhibition at 10 ppm in assay [1] was at least 60%.

Take `O=C(NCC(F)(F)c1ccc(-n2cc(C(F)(F)F)cn2)cc1Cl)c1cccnc1C(F)(F)F` [Example 1-89]: the pest or weed control at 20 ppm with Meloidogyne incognita is 100%. The mortality at 20 ppm with Cooperia curticei and with Haemonchus contortus was 100% in each case. Further, the half-maximal effective concentration (EC50) in assay [2] was under 5 µg/mL. Besides, the inhibition at 10 ppm in assay [1] is at least 60%.

Regarding `O=C(NCC(F)(F)c1ccc(-c2ccc(F)nc2)cc1Cl)c1ccccc1C(F)(F)F` [Example 1-93, N-[2-[2-chloro-4-(6-fluoro-3-pyridyl)phenyl]-2,2-difluoro-ethyl]-2-(trifluoromethyl)benzamide], the pest or weed control at 20 ppm in the assay with Meloidogyne incognita came to 100%. Also, the mortality at 20 ppm with Cooperia curticei was determined as 100%. Also, in the assay with Haemonchus contortus, the mortality at 20 ppm came out at 100%, the Emax at 0.8 ppm turned out to be 100%, the Emax at 4 ppm turned out to be 100% and the Emax at 20 ppm is 100%. Further, the EC50 in assay [2] was under 5 µg/mL. Also, in assay [1], the inhibition at 10 ppm was at least 60%.

Turning to `CC(F)(CNC(=O)c1ccccc1Cl)c1ccc(-c2cncc(F)c2)cc1Cl` (centres unmarked) [Example 1-99], the mortality at 20 ppm in the assay on Cooperia curticei and in the assay on Haemonchus contortus was 100% each time. Also, in assay [2], the EC50 is under 5 µg/mL. Also, the inhibition at 10 ppm in assay [1] was at least 60%.

As to `CC(F)(CNC(=O)c1ccccc1Br)c1ccc(-c2cncc(F)c2)cc1Cl` (centres unmarked) [Example 1-100], the mortality at 20 ppm with Cooperia curticei and in the assay with Haemonchus contortus was 100% each time. Further, the EC50 in assay [2] was under 5 µg/mL. In assay [1], the inhibition at 10 ppm was at least 60%.

As to `O=C(NCC(F)(F)c1ccc(-c2ccc(F)nc2)cc1F)c1ccccc1C(F)(F)F` [Example 1-106], the pest or weed control at 20 ppm in the assay on Meloidogyne incognita came to 90%. Moreover, the mortality at 20 ppm in the assay with Cooperia curticei and with Haemonchus contortus was 100% each time. In addition, in assay [1], the inhibition at 10 ppm was at least 60%.
